Results on 29 compounds are retold here after ChEMBL document CHEMBL5352412, “Discovery of 1,2-diphenylethene derivatives as human DNA topoisomerase II catalytic inhibitors and antitumor agents” (Eur J Med Chem, 2022).

One test deals with MDA-MB-231. Put plainly: Antiproliferative activity against human MDA-MB-231 cells incubated for 72 hrs by CCK8 assay. Type of test: functional, cell-based. Conditions: Homo sapiens, MDA-MB-231, 72 h.
For the next test, the system named is HepG2. Nature of the test: Antiproliferative activity against human HepG2 cells incubated for 72 hrs by CCK8 assay. Type of test: functional, cell-based. The note with it: Homo sapiens, HepG2, 72 h. In general terms: Tetrazolium assays rely on reduction of a dye to a coloured formazan, in cell work by metabolically active cells.
Test [1] has as its target T1, DNA topoisomerase 2-alpha (Homo sapiens, UniProt P11388). Put plainly: Inhibition of human topoisomerase 2-alpha assessed as reduction in relaxation of pBR322 DNA at 100 uM measured after 30 mins by agarose gel electrophoresis method relative to control.
In test [2] the target is T1, DNA topoisomerase 2-alpha. Nature of the test: Inhibition of human topoisomerase 2-alpha assessed as reduction in relaxation of pBR322 DNA at 25 uM measured after 30 mins by agarose gel electrophoresis method relative to control.
Test [3] addresses T1, DNA topoisomerase 2-alpha. Nature of the test: Inhibition of human topoisomerase 2-alpha assessed as reduction in relaxation of pBR322 DNA measured after 30 mins by agarose gel electrophoresis method.

T1 sequence (P11388 whole entry): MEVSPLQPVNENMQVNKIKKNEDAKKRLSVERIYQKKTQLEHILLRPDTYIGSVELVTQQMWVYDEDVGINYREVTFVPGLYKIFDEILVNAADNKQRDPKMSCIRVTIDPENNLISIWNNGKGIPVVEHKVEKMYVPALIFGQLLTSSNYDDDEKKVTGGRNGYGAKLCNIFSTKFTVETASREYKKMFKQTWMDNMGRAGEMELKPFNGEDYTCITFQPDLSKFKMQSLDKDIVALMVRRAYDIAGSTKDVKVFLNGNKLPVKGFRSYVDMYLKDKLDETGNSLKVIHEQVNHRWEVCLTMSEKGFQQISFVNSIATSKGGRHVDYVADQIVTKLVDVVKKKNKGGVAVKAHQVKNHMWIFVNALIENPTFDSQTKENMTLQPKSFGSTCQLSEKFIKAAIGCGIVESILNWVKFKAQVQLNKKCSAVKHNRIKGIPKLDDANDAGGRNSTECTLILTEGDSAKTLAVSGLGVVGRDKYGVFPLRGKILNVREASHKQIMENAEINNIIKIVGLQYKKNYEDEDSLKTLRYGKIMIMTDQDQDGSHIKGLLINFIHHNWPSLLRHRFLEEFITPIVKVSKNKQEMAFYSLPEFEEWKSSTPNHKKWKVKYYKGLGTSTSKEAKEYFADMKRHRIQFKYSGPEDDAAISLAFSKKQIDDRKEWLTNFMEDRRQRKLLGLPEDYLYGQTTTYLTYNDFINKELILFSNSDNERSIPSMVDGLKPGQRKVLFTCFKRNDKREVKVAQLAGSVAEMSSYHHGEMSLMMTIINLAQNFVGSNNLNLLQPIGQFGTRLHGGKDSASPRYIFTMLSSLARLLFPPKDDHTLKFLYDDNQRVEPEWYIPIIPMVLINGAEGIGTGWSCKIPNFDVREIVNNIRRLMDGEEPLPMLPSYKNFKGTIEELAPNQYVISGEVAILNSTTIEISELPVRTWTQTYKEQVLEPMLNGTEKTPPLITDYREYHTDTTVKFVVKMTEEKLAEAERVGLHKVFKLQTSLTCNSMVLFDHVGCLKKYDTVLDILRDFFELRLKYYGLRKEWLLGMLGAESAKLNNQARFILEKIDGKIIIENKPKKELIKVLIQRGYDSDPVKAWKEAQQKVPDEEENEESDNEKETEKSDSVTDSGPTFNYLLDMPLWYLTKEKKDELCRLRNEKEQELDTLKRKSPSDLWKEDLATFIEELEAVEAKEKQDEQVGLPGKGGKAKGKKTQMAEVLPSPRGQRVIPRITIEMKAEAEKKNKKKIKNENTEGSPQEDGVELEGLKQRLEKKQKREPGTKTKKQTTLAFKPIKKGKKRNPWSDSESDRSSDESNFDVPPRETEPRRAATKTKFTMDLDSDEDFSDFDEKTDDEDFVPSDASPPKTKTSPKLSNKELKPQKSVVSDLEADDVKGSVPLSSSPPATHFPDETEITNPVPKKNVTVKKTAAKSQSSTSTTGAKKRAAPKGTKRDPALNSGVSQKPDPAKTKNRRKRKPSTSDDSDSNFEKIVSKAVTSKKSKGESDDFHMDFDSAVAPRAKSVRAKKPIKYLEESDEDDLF

Consider `O=C(CCc1ccccc1)Nc1ccc(-c2nc3ccc(O)cc3s2)cc1`, for which the IC50 (in general, the concentration that inhibits the measured activity by half) with MDA-MB-231 came out at 12.1 µM; in the test with HepG2 it was 4 µM. Also, the inhibition (in general, the percentage by which the read-out fell short of the control) in test [1] was found to be 86.8%; in test [2] it was 7.5%.
Taken in the same sequence, the figures for `O=C(/C=C/c1cc(/C=C/c2cc(O)cc(O)c2)ccc1O)N1CCCCC1` were 16.7 µM, 30 µM, 84.5% and 7.1%.
As to `CCCNC(=O)/C=C/c1ccc(/C=C/c2cc(O)cc(O)c2)cc1`, the IC50 in the test on MDA-MB-231 came to 7.8 µM; in the test on HepG2, 23.7 µM. For the same compound, the inhibition stood at 65.9% in test [1] and 26.8% in test [2].
On the same counts, the results for `O=[N+]([O-])c1cccc(-c2ccc(O)c(/C=C/c3cc(O)cc(O)c3)c2)c1` are 12.6 µM, 18.6 µM, 95.5% and 75.4%.
On to `O=C(/C=C/c1ccccc1)Nc1ccc(-c2nc3ccc(O)cc3s2)cc1`, for which the results for the 50% inhibitory concentration (IC50) in the test on MDA-MB-231 and in the test with HepG2 were 15.9 µM and 5.3 µM, respectively. Further, the inhibition was found to be 87.4% in test [1] and 43.2% in test [2].
On the same counts, the results for `C/C=C/C(=O)Nc1cc(/C=C/c2cc(O)cc(O)c2)ccc1O` are 21.1 µM, 32 µM, 9.9% and 0.2%.
Turning to `COc1ccc2cc(-c3ccc(NC(=O)/C=C/c4ccccc4)cc3)cnc2c1`, the IC50 in the test with MDA-MB-231 came out at 39.5 µM; in the test on HepG2, 37.4 µM. Further, the inhibition in test [1] came out at 0.1%.
Turning to `Oc1cc(O)cc(/C=C/c2cc(-c3ccsc3)ccc2O)c1`, the results for the IC50 in the test with MDA-MB-231 and in the test on HepG2 were 9.5 µM and 8.2 µM, respectively. The inhibition in test [1] came to 88.4%; in test [2] it was 75.2%.
On the same counts, the results for `Oc1cc(O)cc(/C=C/c2ccc(O)c(-c3ccsc3)c2)c1` are 22.6 µM, 34 µM, 86.8% and 15.2%.
Taken in the same sequence, the figures for `C/C=C/C(=O)Nc1ccc(/C=C/c2cc(O)cc(O)c2)cc1` were 3.8 µM, 4.6 µM, 12.5% and 0.4%.
For `Oc1cc(O)cc(/C=C/c2cc(-c3ccoc3)ccc2O)c1`, the IC50 worked out at 20.1 µM in the test on MDA-MB-231, 20.5 µM in the test on HepG2 and 59.8 µM in test [3]. Further, the inhibition is 82.1% in test [1] and 21.3% in test [2].
For the compound `O=C(CCc1ccccc1)Nc1ccc(CCc2cc(O)cc(O)c2)cc1`, the figures for the IC50 with MDA-MB-231 and in the test with HepG2 were 4.6 µM and 2.9 µM, respectively. Besides, the inhibition in test [1] worked out at 9.1%.
With `Oc1cc(O)cc(/C=C/c2cc(-c3ccccc3)ccc2O)c1`, the IC50 in the test with MDA-MB-231 stood at 7.2 µM; in the test with HepG2, 9.5 µM. The inhibition was found to be 87.9% in test [1] and 81.3% in test [2].
Taken in the same sequence, the figures for `O=C(/C=C/c1ccc(/C=C/c2cc(O)cc(O)c2)cc1)N1CCCCC1` were 5.7 µM, 14 µM, 71.1% and 6.9%.
As to `Oc1cc(O)cc(/C=C/c2ccc(-c3cccc(O)c3)cc2)c1`, the half-maximal inhibitory concentration (IC50) in the test on MDA-MB-231 worked out at 11.3 µM; in the test with HepG2 it was 18 µM. The values for the inhibition in test [1] and in test [2] were 82.9% and 63.2%, respectively.
For `Oc1cc(O)cc(/C=C/c2ccc(-c3ccoc3)cc2)c1`, the IC50 came out at 27.5 µM in the test with MDA-MB-231 and 24.5 µM in the test with HepG2. Further, the inhibition came out at 66.1% in test [1] and 30.4% in test [2].
With `O=C(CCc1ccccc1)Nc1ccc(/C=C/c2cc(O)cc(O)c2)cc1`, the IC50 with MDA-MB-231 was 33.9 µM; in the test on HepG2, 14.5 µM. In addition, the inhibition came out at 62.5% in test [1] and 16.4% in test [2].
As to `Oc1cc(O)cc(/C=C/c2cc(-c3cccc(O)c3)ccc2O)c1`, the results for the IC50 in the test with MDA-MB-231 and in the test on HepG2 were 31.2 µM and 29.1 µM, respectively. The inhibition in test [1] turned out to be 90.7%; in test [2] it was 79.3%.
In the case of `COc1cc(CCc2ccc(NC(=O)CCc3ccccc3)cc2)cc(OC)c1`, the half-maximal inhibitory concentration (IC50) was found to be 12 µM in the test with MDA-MB-231 and 3.5 µM with HepG2. For the same compound, the inhibition in test [1] is 1.2%.
Regarding `Oc1cc(O)cc(/C=C/c2ccc(-c3ccsc3)cc2)c1`, the half-inhibitory concentration (IC50) in the test with MDA-MB-231 is 19.1 µM; in the test with HepG2, 31.9 µM. Further, the results for the inhibition in test [1] and in test [2] were 78.5% and 63.2%, respectively.
In the case of `O=C(/C=C/c1ccccc1)Nc1ccc(CCc2cc(O)cc(O)c2)cc1`, the half-maximal inhibitory concentration (IC50) with MDA-MB-231 is 4.2 µM; in the test with HepG2, 2.8 µM. In addition, the inhibition in test [1] is 11.3%.
For `Oc1cc(O)cc(/C=C/c2ccc(-c3ccccc3)cc2)c1`, the concentration for half-maximal inhibition (IC50) came to 10.5 µM in the test with MDA-MB-231 and 18 µM with HepG2. For the same compound, the figures for the inhibition in test [1] and in test [2] were 81.2% and 12.2%, respectively.
In the case of `O=[N+]([O-])c1cccc(-c2ccc(/C=C/c3cc(O)cc(O)c3)cc2)c1`, the figures for the 50% inhibitory concentration (IC50) in the test with MDA-MB-231 and with HepG2 were 11.4 µM and 16.2 µM, respectively. Besides, the inhibition in test [1] amounted to 68.7%; in test [2], 55.3%.
Taken in the same sequence, the figures for `Oc1ccc(-c2ccc(/C=C/c3cc(O)cc(O)c3)cc2)cc1` were 7.8 µM, 10.6 µM, 83.8% and 57.1%.
Consider `COc1cc(/C=C/c2ccc(NC(=O)CCc3ccccc3)cc2)cc(OC)c1`, for which the IC50 was 7.2 µM in the test on MDA-MB-231 and 10.9 µM in the test with HepG2. For the same compound, the inhibition in test [1] came to 0.2%.
In the case of `O=C(/C=C/c1ccccc1)Nc1ccc(NC(=O)c2cc(O)cc(O)c2)cc1`, the IC50 with HepG2 was 36.6 µM. Also, the inhibition in test [1] was determined as 67.2%; in test [2], 27.1%.
Take `Oc1ccc(-c2ccc(O)c(/C=C/c3cc(O)cc(O)c3)c2)cc1`: the IC50 in the test on MDA-MB-231 came to 15.4 µM; in the test on HepG2 it was 30 µM. For the same compound, the inhibition in test [1] worked out at 86.3%; in test [2], 75.4%.
Taken in the same sequence, the figures for `O=C(/C=C/c1ccccc1)Nc1cc(/C=C/c2cc(O)cc(O)c2)ccc1O` were 13.6 µM, 24.3 µM, 94.5% and 79.5%.
Consider `Oc1cc(O)cc(/C=C/c2ccc(O)c(-c3ccoc3)c2)c1`, for which the results for the IC50 in the test with MDA-MB-231 and in the test on HepG2 were 26.6 µM and 36.8 µM, respectively. Besides, the inhibition in test [1] was 77.4%; in test [2] it was 12.6%.
